Assay results as given in US20040147545A1, “Derivatives of oxazolidinones as antibacterial agents” (priority 2001, published 2004).
Values after ≈ are worked out from the molar mass of the structure shown.

How the values were obtained:
Format in all cases: cell-based
[1] = system: S. aureus resistant to meticillin; assay: Antibacterial activity, microdilution in culture broth (NCCLS), strain A; settings: Staphylococcus aureus, G (+) hospital strain, inoculum 5×10^5 UFC/ml
Source text: (§1) The antibacterial activity of the new synthesised compounds on the various strains of the bacterial species was implemented using the technique of microdilution in culture broth according to the regulations of the National Committee for Clinical Laboratory Standards (NCCLS), (NCCLS. 1993. Methods for dilution antimicrobial susceptibility tests for bacteria that grow aerobically. Approved standard M7-A3. NCCLS, Vilanova. Pa., and NCCLS. 1993. Methods for dilution antimicrobial susceptibility tests for anaerobic bacteria […]. Approved standard M1-A3. NCCLS, Vilanova. Pa.).
(§2) The inoculum used was 5×10^5 UFC/ml following dilution of the cultures overnight in the exponential phase of bacterial growth.
(§3) The MIC expressed in mg/l was defined as the minimum concentration of antibiotic which inhibited any visible growth.
(§4) Linezolid was included as comparative compound.
(§5) The compounds were tested on the strains of G(+) and G(−) bacteria set out in Table 1, in which: […]

[2] = system: E. faecalis resistant to vancomycin; assay: Antibacterial activity, microdilution in culture broth (NCCLS), strain B; settings: Enterococcus faecalis, G (+) hospital strain, inoculum 5×10^5 UFC/ml
Source text: as §1, §2, §3, §4, §5

[3] = system: S. pneumoniae resistant to penicillin; assay: Antibacterial activity, microdilution in culture broth (NCCLS), strain C; settings: Streptococcus pneumoniae, G (+) hospital strain, inoculum 5×10^5 UFC/ml
Source text: as §1, §2, §3, §4, §5

[4] = system: S. agalactiae; assay: Antibacterial activity, microdilution in culture broth (NCCLS), strain D; settings: Streptococcus agalactiae, G (+) hospital strain, inoculum 5×10^5 UFC/ml
Source text: as §1, §2, §3, §4, §5

[5] = system: S. epidermidis; assay: Antibacterial activity, microdilution in culture broth (NCCLS), strain E; settings: Staphylococcus epidermidis, G (+) hospital strain, inoculum 5×10^5 UFC/ml
Source text: as §1, §2, §3, §4, §5

[6] = system: S. pyogenes; assay: Antibacterial activity, microdilution in culture broth (NCCLS), strain F; settings: Streptococcus pyogenes, G (+) hospital strain, inoculum 5×10^5 UFC/ml
Source text: as §1, §2, §3, §5

[7] = system: B. fragilis; assay: Antibacterial activity, microdilution in culture broth (NCCLS), strain G (anaerobic); settings: Bacteroides fragilis, anaerobic hospital strain, inoculum 5×10^5 UFC/ml
Source text: as §1, §2, §3, §4, §5

[8] = system: E. coli; assay: Antibacterial activity, microdilution in culture broth (NCCLS), strain H; settings: Escherichia coli, G (−) hospital strain, inoculum 5×10^5 UFC/ml
Source text: as §1, §2, §3, §4, §5

[9] = system: H. influenzae; assay: Antibacterial activity, microdilution in culture broth (NCCLS), strain I; settings: Haemophilus influenzae, G (−) hospital strain, inoculum 5×10^5 UFC/ml
Source text: as §1, §2, §3, §4, §5

[10] = system: M. Catarrahalis; assay: Antibacterial activity, microdilution in culture broth (NCCLS), strain J; settings: G (−) hospital strain, inoculum 5×10^5 UFC/ml
Source text: as §1, §2, §3, §4, §5

| Compound | MIC [1] [µg/mL] | MIC [2] [µg/mL] | MIC [3] [µg/mL] | MIC [4] [µg/mL] | MIC [5] [µg/mL] | MIC [6] [µg/mL] | MIC [7] [µg/mL] | MIC [8] [µg/mL] | MIC [9] [µg/mL] | MIC [10] [µg/mL] |
| --- | --- | --- | --- | --- | --- | --- | --- | --- | --- | --- |
| CC(=O)NC[C@H]1CN(c2ccc(N(C)C3CCN(c4c(F)cc5c(=O)c(C(=O)O)cn6c5c4OCC6C)C3)c(F)c2)C(=O)O1 (stereo partly drawn) [EXAMP. 6, 9-[3-({4-[5-(S)-(acetylamino-methyl)-2-oxo-oxazolidin-3-yl]-2-fluoro-phenyl}-methyl-amino)-pyrrolidin-1-yl]-8-fluoro-3-methyl-6-oxo-2,3-dihydro-6H-1-oxa-3a-aza-phenalen-5-carboxylic Acid] | 2 (≈ 3.27 µM) | 1 (≈ 1.64 µM) | 1 (≈ 1.64 µM) | 0.5 (≈ 0.818 µM) | 0.5 (≈ 0.818 µM) | 1 (≈ 1.64 µM) | 16 (≈ 26.2 µM) | 2 (≈ 3.27 µM) | < 0.125 | 0.25 (≈ 0.409 µM) |
| CC(=O)NC[C@H]1CN(c2ccc(N3CCN(c4c(F)cc5c(=O)c(C(=O)O)cn6c5c4OCC6C)CC3)c(F)c2)C(=O)O1 (stereo partly drawn) [EXAMP. 7, 9-(4-{4-[5-(S)-(acetylamino-methyl)-2-oxo-oxazolidin-3-yl]-2-fluoro-phenyl}-piperazin-1-yl)-8-fluoro-3-methyl-6-oxo-2,3-dihydro-6H-1-oxa-3a-aza-phenalene-5-carboxylic Acid] | 0.25 (≈ 0.418 µM) | 0.5 (≈ 0.837 µM) | 0.25 (≈ 0.418 µM) | 0.5 (≈ 0.837 µM) | 0.25 (≈ 0.418 µM) | 0.25 (≈ 0.418 µM) | 2 (≈ 3.35 µM) | 8 (≈ 13.4 µM) | 4 (≈ 6.69 µM) | 1 (≈ 1.67 µM) |
| CNC(=S)NC[C@H]1CN(c2ccc(N3CCN(c4cc5c(cc4F)c(=O)c(C(=O)O)cn5C4CC4)CC3)c(F)c2)C(=O)O1 [EXAMP. 9, 1-cyclopropyl-6-fluoro-7-[4-(2-fluoro-4-{5-(S)-[(3-methyl-thioureido)-methyl]-2-oxo-oxazolidin-3-yl}-phenyl)-piperazin-1-yl]-4-oxo-1,4-dihydro-quinoline-3-carboxylic Acid] | < 0.125 | < 0.125 | < 0.125 | < 0.125 | < 0.125 | < 0.125 | 0.5 (≈ 0.816 µM) | > 64 | 1 (≈ 1.63 µM) | 0.25 (≈ 0.408 µM) |
| CCNC(=O)NC[C@H]1CN(c2ccc(N3CCN(c4cc5c(cc4F)c(=O)c(C(=O)O)cn5C4CC4)CC3)c(F)c2)C(=O)O1 [EXAMP. 10, 1-cyclopropyl-7-[4-(4-{5-(S)-[(3-ethyl-ureido)-methyl]-2-oxo-oxazolidin-3-yl}-2-fluoro-phenyl)-piperazin-1-yl]-6-fluoro-4-oxo-1,4-dihydro-quinoline-3-carboxylic Acid] | 1 (≈ 1.64 µM) | 2 (≈ 3.28 µM) | 1 (≈ 1.64 µM) | 1 (≈ 1.64 µM) | 0.25 (≈ 0.409 µM) | 1 (≈ 1.64 µM) | 4 (≈ 6.55 µM) | 64 (≈ 105 µM) | 4 (≈ 6.55 µM) | 2 (≈ 3.28 µM) |
| CCOC(=O)NC[C@H]1CN(c2ccc(N3CCN(c4cc5c(cc4F)c(=O)c(C(=O)O)cn5C4CC4)CC3)c(F)c2)C(=O)O1 [EXAMP. 11, 1-cyclopropyl-7-(4-{4-[5-(S)-(ethoxycarbonylamino-methyl)-2-oxo-oxazolidin-3-yl]-2-fluoro-phenyl}-piperazin-1-yl)-6-fluoro-4-oxo-1,4-dihydro-quinoline-3-carboxylic Acid] | 0.5 (≈ 0.818 µM) | 0.5 (≈ 0.818 µM) | 0.5 (≈ 0.818 µM) | 1 (≈ 1.64 µM) | 0.125 (≈ 0.204 µM) | 0.5 (≈ 0.818 µM) | 1 (≈ 1.64 µM) | 32 (≈ 52.3 µM) | 4 (≈ 6.54 µM) | 1 (≈ 1.64 µM) |
| CCOC(=O)c1cn(C2CC2)c2nc(N3CCN(c4ccc(N5C[C@H](CNC(C)=O)OC5=O)cc4F)CC3)c(F)cc2c1=O [EXAMP. 16, 7-(4-{4-[5-(S)-(acetylamino-methyl)-2-oxo-oxazolidin-3-yl]-2-fluoro-phenyl}-piperazin-1-yl)-1-cyclopropyl-6-fluoro-4-oxo-1,4-dihydro-[1,8]Naphthyridine-3-carboxylic Acid Ethyl Ester] | 4 (≈ 6.55 µM) | 2 (≈ 3.28 µM) | 1 (≈ 1.64 µM) | 1 (≈ 1.64 µM) | 2 (≈ 3.28 µM) | 1 (≈ 1.64 µM) | 8 (≈ 13.1 µM) | > 64 | > 64 | 8 (≈ 13.1 µM) |
| CCOC(=O)c1cn(CCF)c2c(F)c(N3CCN(c4ccc(N5C[C@H](CNC(C)=O)OC5=O)cc4F)CC3)c(F)cc2c1=O [EXAMP. 17, 7-(4-{4-[5-(S)-(acetylamino-methyl)-2-oxo-oxazolidin-3-yl]-2-fluoro-phenyl}-piperazin-1-yl)-6,8-difluoro-1-(2-fluoro-ethyl)-4-oxo-1,4-dihydro-quinoline-3-carboxylic Acid Ethyl Ester] | 2 (≈ 3.16 µM) | 2 (≈ 3.16 µM) | 0.5 (≈ 0.789 µM) | 0.5 (≈ 0.789 µM) | 1 (≈ 1.58 µM) | 1 (≈ 1.58 µM) | 4 (≈ 6.31 µM) | > 64 | 64 (≈ 101 µM) | 4 (≈ 6.31 µM) |
| C#CC(O)[C@H]1CN(c2ccc(N3CCN(c4nc5c(cc4F)c(=O)c(C(=O)O)cn5-c4ccc(F)cc4F)CC3)c(F)c2)C(=O)O1 (stereo partly drawn) [EXAMP. 19, 1-(2,4-difluoro-phenyl)-6-fluoro-7-(4-{2-fluoro-4-[5-(R)-(1-hydroxy-prop-2-inyl)-2-oxo-oxazolidin-3-yl]-phenyl}-piperazin-1-yl)-4-oxo-1,4-dihydro-[1,8]Naphthyridine-3-carboxylic Acid] | 4 (≈ 6.27 µM) | 8 (≈ 12.5 µM) | 4 (≈ 6.27 µM) | 8 (≈ 12.5 µM) | 4 (≈ 6.27 µM) | 8 (≈ 12.5 µM) | > 64 | 32 (≈ 50.2 µM) | 1 (≈ 1.57 µM) | 2 (≈ 3.14 µM) |
| CC(=O)NC[C@H]1CN(c2ccc(N3CCN(c4nc5c(cc4F)c(=O)c(C(=O)O)cn5-c4ccc(F)cc4F)CC3)c(F)c2)C(=O)O1 [EXAMP. 20, 7-(4-{4-[5-(S)-(acetylamino-methyl)-2-oxo-oxazolidin-3-yl]-2-fluoro-phenyl}-piperazin-1-yl)-1-(2,4-difluoro-phenyl)-6-fluoro-4-oxo-1,4-dihydro-[1,8]Naphthyridine-3-carboxylic Acid] | 1 (≈ 1.53 µM) | 2 (≈ 3.06 µM) | 1 (≈ 1.53 µM) | 1 (≈ 1.53 µM) | 0.5 (≈ 0.764 µM) | 1 (≈ 1.53 µM) | > 64 | > 64 | 2 (≈ 3.06 µM) | 4 (≈ 6.11 µM) |
| CC(=O)NC[C@H]1CN(c2ccc(N3CCN(c4nc5c(cc4F)c(=O)c(C(=O)O)cn5C4CC4)CC3)c(F)c2)C(=O)O1 [EXAMP. 21, 7-(4-{4-[5-(S)-(acetylamino-methyl)-2-oxo-oxazolidin-3-yl]-2-fluoro-phenyl}-piperazin-1-yl)-1-cyclopropyl-6-fluoro-4-oxo-1,4-dihydro-[1,8]Naphthyridine-3-carboxylic Acid] | 0.25 (≈ 0.429 µM) | < 0.125 | < 0.125 | < 0.125 | < 0.125 | < 0.125 | 0.25 (≈ 0.429 µM) | 64 (≈ 110 µM) | 2 (≈ 3.43 µM) | 0.5 (≈ 0.858 µM) |
| CC(=O)NC[C@H]1CN(c2ccc(N3CCN(c4c(F)cc5c(=O)c(C(=O)O)cn(CCF)c5c4F)CC3)c(F)c2)C(=O)O1 [EXAMP. 22, 7-(4-{4-[5-(S)-(acetylamino-methyl)-2-oxo-oxazolidin-3-yl]-2-fluoro-phenyl}-piperazin-1-yl)-6,8-difluoro-1-(2-fluoro-ethyl)-4-oxo-1,4-dihydro-quinoline-3-carboxylic Acid] | < 0.125 | < 0.125 | 0.25 (≈ 0.413 µM) | < 0.125 | < 0.125 | < 0.125 | 0.5 (≈ 0.826 µM) | 64 (≈ 106 µM) | 2 (≈ 3.3 µM) | 0.5 (≈ 0.826 µM) |
